Experimental data reported in patent US20250101038A1, “COMPOUNDS” (priority 2021, published 2025).
Values joined by “and” are separate entries in the source; they are usually repeats but may differ in a detail not shown here. Identical values can stand only once. Like-named read-outs stand apart in the source and are kept apart here.

Columns and labels:
[1] = In vivo pharmacokinetics, plasma and brain exposure after IP dosing; design: species or system male C57BL/6 mice
Method: The systemic exposure of selected examples was studied in non-fasted male C57BL/6 mice weighing between 18.9-25.5 g. Mice had access to food and water ad libitum throughout the pre- and post-dose sampling period.
On the day of dosing, the formulation of each compound was prepared by dissolving solid compound in phosphate buffer saline (50 mM) using vortexing, creating colourless solutions (pH 6.4-6.5) for each compound.
Compounds were dosed to mice by IP injection (10 mL/kg dose volume via a 27G needle; n=9 mice per compound) and blood samples were collected at 5 and 30 min; 1, 2 and 4 h post-dose (n=3 mice per time point for each compound). A maximum of three blood samples were obtained from each mouse, with plasma samples being taken via submandibular bleed (approximately 120 μL). Once collected, blood samples were centrifuged immediately, supernatant plasma was removed, and stored at −80° C. until analysis by LCMS. In addition, at the 5 and 30 min and 4 h post-dose time points, the whole brain was rapidly removed from the carcass soon after the blood collection. The whole brains were blotted to remove excess blood, placed into pre-weighed polypropylene vials, and weighed. The brains were snap frozen in dry ice and subsequently stored frozen (−80° C.) until analysis.
Concentrations of test compound in plasma and tissue samples were determined using an LCMS/MS method validated for linearity, accuracy, precision, matrix factor and recovery (Table 2). Test compound standard solutions were diluted from a concentrated stock solution (32 mM in H2O) using 50% can in H2O (v/v) and a calibration curve was prepared in a matched matrix to the test samples.
Plasma: The plasma calibration curve was prepared by spiking aliquots of blank mouse plasma (25 μL) with test compound standard solutions (5 μL) and internal standard solution (5 μL of diazepam, 5 μg/mL in 50% acetonitrile in water). Test plasma samples (25 μL) were thawed, mixed, and then spiked with internal standard solution (5 μL). Plasma protein precipitation was performed by addition of acetonitrile (3-fold volume ratio) and thorough vortex mixing. Samples were centrifuged (RCF=9391×g) for 3 minutes and the supernatant (90 μL) was collected for analysis.
Tissue: Pre-weighed tissue samples (brain) were homogenised using a glass rod in buffer containing an EDTA/potassium fluoride solution (0.1 M/4 mg/mL) as a stabilisation cocktail to minimise the potential for ex vivo degradation (3 mL cocktail/g tissue). The tissue homogenate was briefly centrifuged (RCF=79×g) for 10 seconds to separate the foam layer before transferring an aliquot of the tissue homogenate (200 μL) to a fresh Eppendorf tube for sample extraction. Calibration standards were prepared by spiking blank brain homogenate (200 μL) with the solution standards (10 μL) and the internal standard (10 μL). Study samples were similarly prepared, except that acetonitrile (10 μL) was added instead of solution standards to maintain the same volume. Protein precipitation was carried out by the addition of a 3-fold volume of acetonitrile, followed by vortex mixing and centrifugation (RCF=9391×g) for 3 min to recover the supernatant for analysis.
Replicate analysis: Triplicate analytical replicate (ARs) samples were prepared similarly to the standards for each sample type at three concentrations (50, 500 and 2,000 ng/ml) and repeat injections of these ARs were included throughout the analytical run to assess assay performance. The extraction of the test compound from the standards and ARs were conducted as described above.

5-HT2B receptor = molecular target: T1, 5-HT2B receptor (Homo sapiens, UniProt P41595); test: cell-based; conditions: agonist activity, Ca2+ flux, CHO-K1 cells
T1 construct: host or cells: CHO-K1
T1 sequence (P41595 whole entry): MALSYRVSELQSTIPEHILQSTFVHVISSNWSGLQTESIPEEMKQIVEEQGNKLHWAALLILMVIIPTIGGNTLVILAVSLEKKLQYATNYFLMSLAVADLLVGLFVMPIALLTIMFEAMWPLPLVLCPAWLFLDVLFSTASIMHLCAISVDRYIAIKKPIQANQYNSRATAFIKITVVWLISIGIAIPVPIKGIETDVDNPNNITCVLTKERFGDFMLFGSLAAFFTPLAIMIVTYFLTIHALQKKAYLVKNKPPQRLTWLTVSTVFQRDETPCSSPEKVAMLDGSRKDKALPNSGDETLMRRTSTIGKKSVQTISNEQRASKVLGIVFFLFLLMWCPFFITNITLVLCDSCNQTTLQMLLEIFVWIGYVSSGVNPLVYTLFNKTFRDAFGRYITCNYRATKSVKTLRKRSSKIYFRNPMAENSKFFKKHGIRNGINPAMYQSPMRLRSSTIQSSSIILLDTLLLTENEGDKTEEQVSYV

5-HT2A receptor = molecular target: T2, 5-HT2A receptor (Homo sapiens, UniProt P28223); test: FLIPR Ca2+ flux functional assay, 5-HT2A; type: cell-based; conditions: agonist activity, Ca2+ flux, HEK293 cells
T2 construct: host or cells: HEK293
T2 sequence (P28223 whole entry): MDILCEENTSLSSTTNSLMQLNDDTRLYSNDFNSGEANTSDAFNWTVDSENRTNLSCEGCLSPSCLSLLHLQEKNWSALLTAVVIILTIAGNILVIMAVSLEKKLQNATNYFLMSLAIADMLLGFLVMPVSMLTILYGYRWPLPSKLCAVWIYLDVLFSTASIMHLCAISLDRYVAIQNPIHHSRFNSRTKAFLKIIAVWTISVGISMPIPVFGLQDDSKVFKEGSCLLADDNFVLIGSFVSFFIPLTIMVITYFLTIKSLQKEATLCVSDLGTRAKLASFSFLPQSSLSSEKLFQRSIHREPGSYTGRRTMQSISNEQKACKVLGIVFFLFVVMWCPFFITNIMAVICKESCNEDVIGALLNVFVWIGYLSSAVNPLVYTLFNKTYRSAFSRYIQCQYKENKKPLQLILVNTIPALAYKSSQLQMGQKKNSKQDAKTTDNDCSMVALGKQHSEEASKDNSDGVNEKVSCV

5-HT2C receptor = molecular target: T3, 5-HT2C receptor (Homo sapiens, UniProt P28335); test: cell-based; conditions: agonist activity, Ca2+ flux, HEK293 cells
T3 construct: host or cells: HEK293
T3 sequence (P28335 33-458): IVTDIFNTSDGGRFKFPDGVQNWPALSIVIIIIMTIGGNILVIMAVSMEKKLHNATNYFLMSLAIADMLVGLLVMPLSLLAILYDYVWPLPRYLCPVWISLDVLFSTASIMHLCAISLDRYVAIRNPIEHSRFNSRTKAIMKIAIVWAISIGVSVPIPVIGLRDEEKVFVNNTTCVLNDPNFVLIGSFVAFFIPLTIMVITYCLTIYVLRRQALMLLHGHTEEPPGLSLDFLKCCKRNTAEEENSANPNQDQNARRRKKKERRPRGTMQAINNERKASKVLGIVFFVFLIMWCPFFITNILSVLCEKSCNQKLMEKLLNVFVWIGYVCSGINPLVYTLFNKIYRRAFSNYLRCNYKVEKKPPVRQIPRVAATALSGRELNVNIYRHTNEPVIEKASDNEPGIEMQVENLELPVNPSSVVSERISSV

[2] = 0.083 h, IP 10 mg/kg, individual mouse, 10 mg/kg
[3] = 0.5 h, IP 10 mg/kg, individual mouse, 10 mg/kg
[4] = 4 h, IP 10 mg/kg, individual mouse, 10 mg/kg
[5] = mouse, plasma, male C57BL/6 mice, IP 10 mg/kg

For CCN(C)CCc1c[nH]c2cc(C)c(OC)cc12 [Example P-42, N-ethyl-2-(5-methoxy-6-methyl-1H-indol-3-yl)-N-methylethan-1-amine], the “B:P Ratio, Individual” value [1, 2] was 3.8 and 7.1 and 2.0, the “Plasma Concentration, Individual” value [1, 2] was 1760 nM and 3440 nM and the concentration at 0.5 h ([1]; 0.083 h, IP 10 mg/kg, individual mouse, 10 mg/kg, read-out: Brain Parenchyma Concentration, Individual) was 12600 nM and 7010 nM. For the same compound, the “B:P Ratio, Individual” value [1, 3] was 20 and 11, the “Plasma Concentration, Individual” value [1, 3] was 1880 nM and 1820 nM and the concentration at 0.5 h ([1]; 0.5 h, IP 10 mg/kg, individual mouse, 10 mg/kg, read-out: Brain Parenchyma Concentration, Individual) was 37300 nM and 19900 nM. For the same compound, the “B:P Ratio, Individual” value [1, 4] was 18 and 14 and 8.2, the “Plasma Concentration, Individual” value [1, 4] was 38.4 nM and 20.9 nM and the concentration at 0.5 h ([1]; 4 h, IP 10 mg/kg, individual mouse, 10 mg/kg, read-out: Brain Parenchyma Concentration, Individual) was 408 nM and 530 nM and 171 nM. It also gave a concentration at 0.083 h ([1]; male, C57BL/6, mouse, brain, ip, 10 mg/kg, 0.083 h, individual mouse, read-out: Brain Parenchyma Concentration, Individual) of 10100 nM, a concentration at 0.083 h ([1]; male, C57BL/6, mouse, brain, ip, 10 mg/kg, 0.083 h, n = 3, read-out: Brain Parenchyma Concentration, Mean ± SD) of 9900 ± 2790 nM and a concentration at 0.5 h ([1]; male, C57BL/6, mouse, brain, ip, 10 mg/kg, 0.5 h, individual mouse, read-out: Brain Parenchyma Concentration, Individual) of 21300 nM. It also gave a concentration at 0.5 h ([1]; male, C57BL/6, mouse, brain, ip, 10 mg/kg, 0.5 h, n = 3, read-out: Brain Parenchyma Concentration, Mean ± SD) of 26200 ± 9680 nM, a concentration at 4 h ([1]; male, C57BL/6, mouse, brain, ip, 10 mg/kg, 4 h, n = 3, read-out: Brain Parenchyma Concentration, Mean ± SD) of 370 ± 182 nM and a Kp at 0.083 h ([1]; male, C57BL/6, mouse, brain/plasma, ip, 10 mg/kg, 0.083 h, n = 3, read-out: B:P Ratio, Mean ± SD) of 4.3 ± 2.6. It also gave a Kp at 0.5 h ([1]; male, C57BL/6, mouse, brain/plasma, ip, 10 mg/kg, 0.5 h, individual mouse, read-out: B:P Ratio, Individual) of 18, a Kp at 0.5 h ([1]; male, C57BL/6, mouse, brain/plasma, ip, 10 mg/kg, 0.5 h, n = 3, read-out: B:P Ratio, Mean ± SD) of 16 ± 4.6 and a Kp at 4 h ([1]; male, C57BL/6, mouse, brain/plasma, ip, 10 mg/kg, 4 h, n = 3, read-out: B:P Ratio, Mean ± SD) of 13 ± 5. It also gave a concentration at 0.083 h ([1]; male, C57BL/6, mouse, plasma, ip, 10 mg/kg, 0.083 h, individual mouse, read-out: Plasma Concentration, Individual) of 2650 nM, a concentration at 0.083 h ([1]; male, C57BL/6, mouse, plasma, ip, 10 mg/kg, 0.083 h, n = 3, read-out: Plasma Concentration, Mean ± SD) of 2620 ± 840 nM and a concentration at 0.5 h ([1]; male, C57BL/6, mouse, plasma, ip, 10 mg/kg, 0.5 h, individual mouse, read-out: Plasma Concentration, Individual) of 1200 nM. The concentration at 0.5 h ([1]; male, C57BL/6, mouse, plasma, ip, 10 mg/kg, 0.5 h, n = 3, read-out: Plasma Concentration, Mean ± SD) was 1640 ± 376 nM, the concentration at 4 h ([1]; male, C57BL/6, mouse, plasma, ip, 10 mg/kg, 4 h, individual mouse, read-out: Plasma Concentration, Individual) was 22.5 nM and the concentration at 4 h ([1]; male, C57BL/6, mouse, plasma, ip, 10 mg/kg, 4 h, n = 3, read-out: Plasma Concentration, Mean ± SD) was 27.3 ± 9.7 nM. For the same compound, the Cmax [1, 5] was 2620 nM, the Tmax [1, 5] was 4.98 min and the AUC(0-inf) ([1]; mouse, plasma, male C57BL/6 mice, IP 10 mg/kg, read-out: Plasma AUC0-inf) was 2.36 µM·h. The half-life ([1]; mouse, male C57BL/6 mice, IP 10 mg/kg, plasma, read-out: Apparent T1/2 (converted)) was 36 min, the Emax (5-HT2B receptor) was 8.39% and the EC50 (5-HT2B receptor; read-out: 5-HT2B EC50) was greater than 10000 nM. For the same compound, the Emax (5-HT2A receptor) was 88.2%, the EC50 (5-HT2A receptor; read-out: 5-HT2A EC50) was 26.5 nM and the Emax (5-HT2C receptor) was 85.8%. The EC50 (5-HT2C receptor; read-out: 5-HT2C EC50) was 68.5 nM.
